Data reported in patent publication US6143719A, “Bradykinin analogs as selective thrombin inhibitors” (The Regents of the University of Michigan, priority 1996, dated 2000).
Like-named read-outs stand apart in the source and are kept apart here.

Legend:
platelets = assay type: cell-based, human; settings: for inhibition of aggregation / inhibition of secretion: peptide 1 mM
Experimental: Fresh whole blood was collected and mixed with 0.013 M sodium citrate and platelet-rich plasma was prepared according to the method of Meloni et al., J. Biol. Chem. 266, 6786, 1991. Washed platelets were prepared by gel filtration over Sepharose 2B columns in Hepes-Tyrode's buffer (0.137 M NaCl, 3 mM KCl, 0.4 mM Na H2 PO4, 12 mM NaHCO3, 1 mM MgCl2, 14.7 mM Hepes containing 20 mM glucose and 0.2% bovine serum albumin, pH 7.35). Platelets for aggregation and secretion studies were incubated according to the method of Schmaier et al., Blood 56, 1013, 1980 with 5-[^14 C]hydroxytryptamine for 30 min at 37° C. The washed platelets (2×10^8 /ml, final concentration radiolabeled with 5-[^14 C]hydroxytryptamine) were added to a cuvette of an aggregometer (Chronolog Corp., Havertown, Pa.), standardized using the protocol of Meloni et al., supra. After the addition of ZnCl2, final concentration 50 μM, purified HK (1 μM) or various concentrations of the peptides (0.1 to 3 mM) or buffer alone was added to the cuvette. Once the baseline stabilized, α-thrombin [0.125 U/ml (1 nM) final concentration] was then added to initiate platelet activation. Stirred platelets were allowed to incubate with o-thrombin and additions for 1 min. In other experiments, platelets were stimulated with TRAP (0.625 to 2.5 μM), ADP (1-5 μM)(Sigma), collagen (1.25 μg/ml) (Horm, Munich, Germany), or U-46619 (1 μM)(Calbiochem Behring, San Diego, Calif.). Additional experiments were performed with washed platelets stimulated with γ-thrombin (1 nM) in the presence of human fibrinogen (100 mg/dl). Both γ-thrombin and human fibrinogen were purchased from Enzyme Research Laboratories, South Bend, Ind. At the conclusion of the incubation, the entire platelet sample was centrifuged at 10,900 xg (Model E, Beckman Instruments, Palo Alto, Calif.) over a 0.135 mM formaldehyde, 5 mM EDTA solution (1 part of formaldehyde-EDTA to 4 parts of platelet suspension) and stored on ice until an aliquot of the supernatant was assayed for 5-[^14 C]hydroxytryptamine secretion. Percent secretion was determined by the ratio of the loss of 5-[^14 C]hydroxytryptamine in the supernatant of the agonist-treated specimen to the loss of 5-[^14 C]hydroxytryptamine in the supernatant of the platelet lysate after the value of the control supernatant (i.e., the level of 5-[^14 C]hydroxytryptamine in a unstimulated sample) was subtracted from both.

human platelets = assay type: cell-based
Experimental: The cytoplasmic free Ca^2+ concentration ([Ca^2+ ]i) was measured using the fluorescent Ca^2 + indicator fura-2 (Molecular Probes, Inc., Eugene, Oreg.). Gel filtered platelets in Hepes-Tyrode's buffer were loaded with fura-2 by incubation at 37° C. with 1 μM fura-2/acetoxymethyl ester for 45 min according to the method of Rasmussen et al., J. Biol. Chem. 268, 14322 (1993). The labeled platelets were then re-gel filtered to remove any excess probe. Aliquots of the labeled platelet suspension were transferred into a quartz cuvette with a magnetic stirrer, which was then placed in a thermostatically controlled chamber at 37° C. in a fluorescence spectrophotometer (Dual Wave Length Shimazdu SP5000 Spectrofluorometer, Shimazdu USA, Pittsburgh, Pa.). Reagents were directly added to the cuvette. The excitation wave lengths varied between 340 and 380 nm. The fluorescence was measured by recording emitted light at 510 nm as reported by Fisher et al, Mol. Pharm. 35, 195 (1989). The minimum emission was determined on a 20 mM digitonin, 10 mM EGTA solubilized platelet sample; maximum emission was determined on the same sample with 10 mM Ca^2+ added. The intraplatelet free Ca^2+ concentration was calculated by the method of Grykiewicz et al., J. Biol. Chem. 260, 3440 (1985). The ratio of the fluorescence readings was calculated as R=340/380 nm and processed according to the equation [Ca^2+ ]i =KD ((R-Rmin)/Rmax -R))(Sf2 /Sb2) to determine the intraplatelet free Ca^2+ concentration. The KD for fura-2 was assumed to be 224 nM. Rmax and Rmin are the maximum and minimum fluorescence ratios measured at the end of the experiment, respectively; Sf2 and Sb2 are the fluorescence values at 380 nm in the absence and presence of saturating [Ca^2+ ], respectively.

[1] = aggregation and secretion not distinguished, read-out: IC50, inhibition of α-thrombin-induced platelet activation
[2] = washed platelets, α-thrombin 1 nM, read-out: IC50 AGGREGATION (inhibition of α-thrombin-induced platelet aggregation)
[3] = washed platelets, α-thrombin 1 nM, read-out: IC50 SECRETION (inhibition of α-thrombin-induced platelet secretion)

Row | Compound | inhibition of aggregation (platelets) | inhibition of secretion (platelets) | IC50 (human platelets) [µM] | IC50 (platelets; [1]) [µM] | IC50 (platelets; [2]) [µM] | IC50 (platelets; [3]) [µM]
1 | SEQ ID NO:6: scrambled peptide having the same amino acid count as SEQ ID NO: 14 (FSGPKRSPIMGRPSFR) [reference compound] | 26% | 8% | – | – | – | –
2 | CC[C@H](C)[C@H](NC(=O)[C@H](CCCNC(=N)N)NC(=O)[C@H](CO)NC(=O)[C@H](CO)NC(=O)[C@H](CCCNC(=N)N)NC(=O)[C@H](Cc1ccccc1)NC(=O)[C@@H]1CCCN1C(=O)[C@H](CO)NC(=O)[C@H](Cc1ccccc1)NC(=O)CNC(=O)[C@@H]1CCCN1C(=O)[C@@H]1CCCN1C(=O)[C@H](CCCNC(=N)N)NC(=O)[C@H](CCCCN)NC(=O)[C@@H](N)CCSC)C(=O)NCC(=O)O [SEQ ID NO:14] | – | – | 300 | – | – | –
3 | SEQ ID NO:9: scrambled peptide having the amino acids of SEQ ID NO:19 (GPFPR) [reference compound] | did not inhibit | did not inhibit | – | – | – | –
4 | SEQ ID NO:7: BK analog of the mid or carboxy terminal regions of BK (FSPFRSS) | – | – | – | ≥ 2000 | 2000 | > 2000
5 | SEQ ID NO:5: scrambled peptide having the amino acids of SEQ ID NO:19 (FPRPG) [reference compound] | did not inhibit | did not inhibit | – | – | – | –
6 | SEQ ID NO:16: BK analog of the mid or carboxy terminal regions of BK (PPGFSP) | – | – | – | ≥ 2000 | > 3000 | > 2000
7 | Arg-Pro-Pro-Gly (RPPG) [SEQ ID NO:20] | 95% | 25% | – | – | – | –
